According to patent US20260217701A1, “SELECTIVE BET INHIBITORS AND USES THEREOF” (Tay Therapeutics Limited, priority 2022, published 2026):
Where “and” joins values, the source holds several entries; their conditions need not be identical. Identical values can stand only once.

Experiment: CIA study: animal body weight
Details: for Average animal body weight / Average animal body weight percent change: CIA; for Animal body weight percent change (%): individual animals

For Cn1cc(-c2ccccc2)c(-c2cn(C)c(=O)c3[nH]c(-c4cnn(C(F)(F)F)c4)cc23)cc1=O [Compound A, 6-methyl-4-(1-methyl-2-oxo-5-phenyl-1,2-dihydropyridin-4-yl)-2-(1-(trifluoromethyl)-1H-pyrazol-4-yl)-1,6-dihydro-7H-pyrrolo[2,3-c]pyridin-7-one], the “Average animal body weight” value (Day 9, 10 mg/kg) was 163, the “Average animal body weight percent change” value (Day 9, 10 mg/kg) was 0.36% and the “Animal body weight percent change (%)” value (Day 9, Group 5 (CIA + Compound A 1 mg/kg), 1 mg/kg) was 9.09% and −4.88% and 8.02% and 6.58% and 2.37% and 1.80% and 3.68%. The “Animal body weight percent change (%)” value (Day 9, Group 6 (CIA + Compound A 3 mg/kg), 3 mg/kg) was −3.57% and 0.00% (2×) and 1.71% and 1.20% and 4.19% and 8.28% and 2.56%, the “Average animal body weight” value (Day 10, 1 mg/kg) was 170 and the “Average animal body weight percent change” value (Day 10, 1 mg/kg) was 4.20%. For the same compound, the “Average animal body weight” value (Day 10, 3 mg/kg) was 168, the “Average animal body weight percent change” value (Day 10, 3 mg/kg) was 1.65% and the “Average animal body weight” value (Day 10, 10 mg/kg) was 164. The “Average animal body weight percent change” value (Day 10, 10 mg/kg) was 0.89%, the “Animal body weight percent change (%)” value (Day 10, Group 5 (CIA + Compound A 1 mg/kg), 1 mg/kg) was 7.88% and −5.49% and 9.88% and 9.21% and 0.59% and 5.39% and 1.84% and the “Animal body weight percent change (%)” value (Day 10, Group 6 (CIA + Compound A 3 mg/kg), 3 mg/kg) was −3.57% and 0.58% and 1.14% and 1.80% and 0.60% and 2.45% and 6.37%. The “Average animal body weight” value (Day 11, 1 mg/kg) was 170, the “Average animal body weight percent change” value (Day 11, 1 mg/kg) was 4.25% and the “Average animal body weight” value (Day 11, 3 mg/kg) was 169. The “Average animal body weight percent change” value (Day 11, 3 mg/kg) was 1.92%, the “Average animal body weight” value (Day 11, 10 mg/kg) was 165 and the “Average animal body weight percent change” value (Day 11, 10 mg/kg) was 1.44%. For the same compound, the “Animal body weight percent change (%)” value (Day 11, Group 5 (CIA + Compound A 1 mg/kg), 1 mg/kg) was 9.09% and −4.27% and 9.88% and 6.58% and 0.59% and 4.79% and 2.45%, the “Animal body weight percent change (%)” value (Day 11, Group 6 (CIA + Compound A 3 mg/kg), 3 mg/kg) was −4.76% and 0.58% and 1.71% and 2.99% and −4.19% and 3.68% and 9.55% and the “Average animal body weight” value (Day 12, 1 mg/kg) was 171. The “Average animal body weight percent change” value (Day 12, 1 mg/kg) was 4.85%, the “Average animal body weight” value (Day 12, 3 mg/kg) was 167 and the “Average animal body weight percent change” value (Day 12, 3 mg/kg) was 0.97%. The “Average animal body weight” value (Day 12, 10 mg/kg) was 164, the “Average animal body weight percent change” value (Day 12, 10 mg/kg) was 1.36% and the “Animal body weight percent change (%)” value (Day 12, Group 5 (CIA + Compound A 1 mg/kg), 1 mg/kg) was 10.30% and −3.66% and 8.64% and 6.58% and 2.96% and 5.99% and 1.23%. The “Animal body weight percent change (%)” value (Day 12, Group 6 (CIA + Compound A 3 mg/kg), 3 mg/kg) was −5.95% and 2.92% and 2.86% and 0.00% and −5.39% and 3.68% and 9.55%, the “Average animal body weight” value (Day 13, 1 mg/kg) was 169 and the “Average animal body weight percent change” value (Day 13, 1 mg/kg) was 3.78%. For the same compound, the “Average animal body weight” value (Day 13, 3 mg/kg) was 167, the “Average animal body weight percent change” value (Day 13, 3 mg/kg) was 0.88% and the “Average animal body weight” value (Day 13, 10 mg/kg) was 163. The “Average animal body weight percent change” value (Day 13, 10 mg/kg) was 0.66%, the “Animal body weight percent change (%)” value (Day 13, Group 5 (CIA + Compound A 1 mg/kg), 1 mg/kg) was 9.09% and −3.66% and 10.49% and 5.26% and 2.96% and 2.99% and 1.23% and the “Animal body weight percent change (%)” value (Day 13, Group 6 (CIA + Compound A 3 mg/kg), 3 mg/kg) was −3.57% and 2.34% and −5.14% and 3.59% and −5.99% and 3.07% and 8.92%. For the same compound, the “Average animal body weight” value (Day 14, 1 mg/kg) was 170, the “Average animal body weight percent change” value (Day 14, 1 mg/kg) was 3.90% and the “Average animal body weight” value (Day 14, 3 mg/kg) was 167. For the same compound, the “Average animal body weight percent change” value (Day 14, 3 mg/kg) was 0.99%, the “Average animal body weight” value (Day 14, 10 mg/kg) was 162 and the “Average animal body weight percent change” value (Day 14, 10 mg/kg) was 0.03%. The “Animal body weight percent change (%)” value (Day 14, Group 5 (CIA + Compound A 1 mg/kg), 1 mg/kg) was 7.88% and −3.05% and 10.49% and 1.97% and 3.55% and 1.80% and 3.07%, the “Animal body weight percent change (%)” value (Day 14, Group 6 (CIA + Compound A 3 mg/kg), 3 mg/kg) was −2.98% and 3.51% and −2.86% and 4.79% and −6.59% and 2.45% and 8.28% and the “Average animal body weight” value (Day 15, 1 mg/kg) was 168. For the same compound, the “Average animal body weight percent change” value (Day 15, 1 mg/kg) was 3.24%, the “Average animal body weight” value (Day 15, 3 mg/kg) was 166 and the “Average animal body weight percent change” value (Day 15, 3 mg/kg) was 0.37%. The “Average animal body weight” value (Day 15, 10 mg/kg) was 162, the “Average animal body weight percent change” value (Day 15, 10 mg/kg) was 0.13% and the “Average animal body weight” value (Day 16, 1 mg/kg) was 167. The “Average animal body weight percent change” value (Day 16, 1 mg/kg) was 2.62%, the “Average animal body weight” value (Day 16, 3 mg/kg) was 165 and the “Average animal body weight percent change” value (Day 16, 3 mg/kg) was −0.37%. For the same compound, the “Average animal body weight” value (Day 16, 10 mg/kg) was 161, the “Average animal body weight percent change” value (Day 16, 10 mg/kg) was −0.57% and the “Average animal body weight” value (Day 17, 1 mg/kg) was 167. The “Average animal body weight percent change” value (Day 17, 1 mg/kg) was 2.48%, the “Average animal body weight” value (Day 17, 3 mg/kg) was 163 and the “Average animal body weight percent change” value (Day 17, 3 mg/kg) was −1.43%. For the same compound, the “Average animal body weight” value (Day 17, 10 mg/kg) was 161, the “Average animal body weight percent change” value (Day 17, 10 mg/kg) was −0.47% and the “Average animal body weight” value (Day 18, 1 mg/kg) was 167. For the same compound, the “Average animal body weight percent change” value (Day 18, 1 mg/kg) was 2.38%, the “Average animal body weight” value (Day 18, 3 mg/kg) was 164 and the “Average animal body weight percent change” value (Day 18, 3 mg/kg) was −1.11%. For the same compound, the “Average animal body weight” value (Day 18, 10 mg/kg) was 162, the “Average animal body weight percent change” value (Day 18, 10 mg/kg) was −0.29% and the “Average animal body weight” value (Day 19, 1 mg/kg) was 166. For the same compound, the “Average animal body weight percent change” value (Day 19, 1 mg/kg) was 1.46%, the “Average animal body weight” value (Day 19, 3 mg/kg) was 163 and the “Average animal body weight percent change” value (Day 19, 3 mg/kg) was −1.74%. For the same compound, the “Average animal body weight” value (Day 19, 10 mg/kg) was 161, the “Average animal body weight percent change” value (Day 19, 10 mg/kg) was −0.70% and the “Average animal body weight” value (Day 20, 1 mg/kg) was 166. For the same compound, the “Average animal body weight percent change” value (Day 20, 1 mg/kg) was 1.92%, the “Average animal body weight” value (Day 20, 3 mg/kg) was 162 and the “Average animal body weight percent change” value (Day 20, 3 mg/kg) was −2.24%. For the same compound, the “Average animal body weight” value (Day 20, 10 mg/kg) was 161, the “Average animal body weight percent change” value (Day 20, 10 mg/kg) was −0.54% and the “Average animal body weight” value (Day 21, 1 mg/kg) was 165. The “Average animal body weight percent change” value (Day 21, 1 mg/kg) was 0.93%, the “Average animal body weight” value (Day 21, 3 mg/kg) was 162 and the “Average animal body weight percent change” value (Day 21, 3 mg/kg) was −1.78%. For the same compound, the “Average animal body weight” value (Day 21, 10 mg/kg) was 161 and the “Average animal body weight percent change” value (Day 21, 10 mg/kg) was −0.75%.
